Measured values published in patent US4808618A, “Substituted 1,3-dialkylpyrido[4,3-d]pyrimidine-2,4-diones” (Nippon Zoki Pharmaceutical Co., Ltd., priority 1986, dated 1989).

Assays:
[1] = system: PCA (Passive Cutaneous Anaphylaxis) reaction; assay: PCA (Passive Cutaneous Anaphylaxis) reaction in rats, anti-allergic effect; format: in vivo, rat (Wister-strain; settings: 20 mg/kg oral, 1 hour before challenge; Wister-strain male rats; dye absorbance at 620 nm
Experimental: PCA (Passive Cutaneous Anaphylaxis) reaction in rats was taken as an index to an anti-allergic effect of the compound of the present invention.
In order to perform sensitization, anti-DNP-Asc (dinitrophenylated Ascaris extracts) serum diluted with saline was injected intradermally at 4 sites on the shaved back of groups of 6 Wister-strain male rats (6 weeks of age). 1 hour after oral administration of the test drug, the mixture of equivalent amount of DNP-Asc (5 mg/ml) and 2% Evans blue were intravenously injected to generate PCA reaction. 30 minutes thereafter, rats were killed by decapitation and exsanguinated. The skin was opened in order to evaluate the leakage of blue dye. The obtained skin was dissolved in 2N potassium hydroxide, then 2N phosphoric acid and acetone were added thereto. The amount of dye was determined by measurement of absorbance at 620 nm after centrifugation.

[2] = Acute toxicity test (oral, LD50 by Litchfield-Wilcoxon's method); settings: mouse, in vivo, ICR-strain male mice, groups of 5, mortality for 14 days
Experimental: The test compounds were orally administered to groups of 5 ICR-strainmale mice. LD50 value of the compound of the present invention was calculated by the Litchfield-Wilcoxon's method based on mortality for 14 days after drug administration.

| Compound | Inhibition (PCA reaction) [1] [%] | LD50 at 336 h [2] [mg/kg] |
| --- | --- | --- |
| Cn1c(=O)c2cnccc2n(C)c1=O [Compound 1, 1,3-dimethylpyrido[4,3-d]pyrimidine-2,4-dione] | 85.3 | 400 |
| Cn1c(=O)c2c(N)nccc2n(C)c1=O [Compound 3, 5-amino-1,3-dimethylpyrido[4,3-d]pyrimidine-2,4-dione] | 77.3 | 710 |
| CCn1c(=O)c2c(N)nccc2n(CC)c1=O [Compound 4, 5-amino-1,3-diethylpyrido[4,3-d]pyrimidine-2,4-dione] | 89.3 | – |
| CNc1nccc2c1c(=O)n(C)c(=O)n2C [Compound 6, 5-methylamino-1,3-dimethylpyrido[4,3-d]pyrimidine-2,4-dione] | 92.0 | 720 |
| CCn1c(=O)c2c(NC)nccc2n(CC)c1=O [Compound 7, 5-methylamino-1,3-diethylpyrido[4,3-d]pyrimidine-2,4-dione] | 72.7 | – |
| CC(C)Nc1nccc2c1c(=O)n(C)c(=O)n2C [Compound 8, 5-isopropylamino-1,3-dimethylpyrido[4,3-d]pyrimidine-2,4-dione] | 73.4 | 700 |
| Cn1c(=O)c2[nH]cnc2n(C)c1=O [Theophylline, reference compound] | 78.7 | – |
